Measured values: patent US20170073690A1, “ANTAGONISTS OF SLC38A9 AND THEIR USE IN THERAPY” (CEMM - Forschungzentrum Fuer Molekulare Medizin GMBH, priority 2014, published 2017)

Key:
HEK293T cells [1] = assay: cell size measurement (nucleus diameter, automated microscopy); format: cell-based, human; conditions: shRNA knockdown vs shGFP, nucleus diameter as proxy, FIG. 5C
Method: (§1) a, Table of SLCs belonging to amino acid transporter families robustly expressed in HEK293 and K562 cells as monitored by RNAseq. SLC members of amino acid transporter-containing families^16 and expressed (FPKM>0.5) in both cell lines were ranked according to their expression level. […] Sparse and interphase cells were selected using image analysis and machine learning, and nucleus diameter (μm) was used as robust proxy for cell size^33. […] 10^5 cells were seeded and counted every 24 h. Mean values ±s.d. from triplicates e. HEK293 Flp-In TREx cells inducibly expressing SLC38A9 were treated or not with doxycycline (Dox) for 24 h. Where indicated, cell lysates were treated with PNGase (1 hour, 37° C.) and analysed by immunoblot (IB)
Images were taken by automated microscopy using the PerkinElmer Operetta with 20× magnification in confocal mode. Images were analysed using CellProfiler (www at cellprofiler.org), CellClassifier (http at www.pelkmanslab.org/?page_id=63), Population Context measurement code (https at www.pelkmanslab.org/?page_id=1150) and custom Matlab code written specifically for this study. […] We used the typical nucleus diameter (i.e. the diameter of a circle with the same area as that measured for each nucleus) as a robust proxy for cell size^6. […]

HEK293T cells [2] = assay: cell proliferation measurement (cell counting every 24 h); format: cell-based, human; conditions: shRNA knockdown vs shGFP, FIG. 5D
Method: as §1

mTORC1 [3] = assay: amino acid-induced mTORC1 activation in HEK293T (immunoblot of phosphorylated S6 kinase, S6, ULK1); format: cell-based, human; conditions: lentivirus-encoded shRNA vs shGFP, starved 50 min, amino acids 10 or 20 min, FIG. 4A
Method: (§2) After 72 h, cells were treated as in a.d, HeLa were transfected with the indicated siRNA. After 72 h, cells were starved for 50 min in medium without amino acids and serum and then stimulated with amino acids and insulin (1 uM). Cell lysates were analysed by immunoblot with antibodies against phosphorylated threonine 389 S6 kinase, phosphorylated S6 and total S6 kinase e, Model of Sentor/SLC38A9 as part of the lysosomal amino acid-sensing machinery
[…]. HEK293T cells were co-transfected with packaging plasmids and the shRNA-encoding plasmids. Cells were washed 16 h after transfection. Virus-containing supernatants were collected 24 h after washing, filtered and used for infection. After infection, HEK293T cells were selected with puromycin (4 μg/ml). For siRNA-mediated knockdown, HEK293T cells were transfected with HiPerfect (Qiagen) with 60 nM of siRNA pool. After 72 h cells were subjected to amino acid stimulation as described. ON-TARGETplus SMARTpool against SLC38A9 (L-007337-02-0005, Target sequences: […] (SEQ ID NO: 77), […] (SEQ ID NO: 78), […] (SEQ ID NO: 79), […] (SEQ ID NO: 80)), LAMTOR1 (L-020916-02-0010, Target sequences: […] (SEQ ID NO: 81), […] (SEQ ID NO: 82), […] (SEQ ID NO: 83), […] (SEQ ID NO: 84)) and Non-targeting pool (D-001810-10-05) were from ThermoScientific. […]

mTORC1 [4] = assay: cycloheximide-induced mTORC1 activation in HEK293T (immunoblot); format: cell-based, human; conditions: shRNA, starved 50 min, cycloheximide 25 μg/ml 10 or 20 min, FIG. 4B
Method: as §2, with “After 72 h, cells were starved for 50 min in medium without amino acids and serum and then stimulated with amino acids and insulin (1 uM).” left out
[…]. HEK293T cells were co-transfected with packaging plasmids and the shRNA-encoding plasmids. Cells were washed 16 h after transfection. Virus-containing supernatants were collected 24 h after washing, filtered and used for infection. After infection, HEK293T cells were selected with puromycin (4 μg/ml). For siRNA-mediated knockdown, HEK293T cells were transfected with HiPerfect (Qiagen) with 60 nM of siRNA pool. After 72 h cells were subjected to amino acid stimulation as described. ON-TARGETplus SMARTpool against SLC38A9 (L-007337-02-0005, Target sequences: […] (SEQ ID NO: 77), […] (SEQ ID NO: 78), […] (SEQ ID NO: 79), […] (SEQ ID NO: 80)), LAMTOR1 (L-020916-02-0010, Target sequences: […] (SEQ ID NO: 81), […] (SEQ ID NO: 82), […] (SEQ ID NO: 83), […] (SEQ ID NO: 84)) and Non-targeting pool (D-001810-10-05) were from ThermoScientific.
HEK293T cells were washed with PBS and incubated in amino acid-free RPMI for 50 min Cell were then stimulated for 10 or 20 min by the addition of RPMI containing a two time concentrated solution of amino acids. […]

[5] = target: T1, recombinant human SLC38A9 (Homo sapiens, UniProt Q8NBW4); assay: inhibition of [3H]-glutamine uptake in SLC38A9 proteoliposomes; format: biochemical; conditions: for transport capacity of SLC38A9 for amino acids (transport preference): inferred from binding preference, FIG. 3d; for binding capacity of SLC38A9 for amino acids (binding preference): ranking read from FIG. 3d; for competition for glutamine transport (inhibition of [3H]-glutamine uptake): added together with 10 μM [3H]-glutamine, transport at 60 min, MeAIB 1 mM, FIG. 3D, FIG. 10B
T1 construct: made in house; host or cells: E. coli Lemo21(DE3)pLysS
T1 sequence (Q8NBW4 1-561): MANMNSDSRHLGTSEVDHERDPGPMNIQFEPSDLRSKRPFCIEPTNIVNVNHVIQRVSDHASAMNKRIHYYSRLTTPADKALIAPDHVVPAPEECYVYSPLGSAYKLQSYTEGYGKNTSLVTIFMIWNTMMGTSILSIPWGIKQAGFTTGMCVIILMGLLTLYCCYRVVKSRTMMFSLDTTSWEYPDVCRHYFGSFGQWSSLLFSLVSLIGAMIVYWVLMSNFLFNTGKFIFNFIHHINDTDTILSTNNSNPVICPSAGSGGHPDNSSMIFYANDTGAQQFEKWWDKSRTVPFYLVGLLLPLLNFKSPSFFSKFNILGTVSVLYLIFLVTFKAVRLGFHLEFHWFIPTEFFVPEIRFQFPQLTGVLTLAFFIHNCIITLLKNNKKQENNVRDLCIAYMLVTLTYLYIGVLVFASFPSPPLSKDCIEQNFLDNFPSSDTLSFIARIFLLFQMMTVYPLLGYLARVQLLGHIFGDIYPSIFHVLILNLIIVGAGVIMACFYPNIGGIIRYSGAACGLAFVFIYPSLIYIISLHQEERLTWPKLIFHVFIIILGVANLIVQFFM
Method: (§3) a, Orientation of SLC38A9 in proteoliposomes. After purification on Ni-chelating chromatography His-SLC38A9 was incubated overnight at 37° C. in absence or in presence of 1 U thrombin. Immunoblot using anti-His or anti-SLC38A9 antibody. b, Proteoliposomes reconstituted with SLC38A9 were centrifuged, resuspended in isosmotic buffer, incubated overnight at 37° C. with 1 U thrombin, solubilized with SDS Immunoblot using anti-His or anti-SLC38A9 antibody. c, Time course of glutamine uptake by SLC38A9 in proteoliposomes reconstituted with purified SLC38A9 or with control empty vector protein. The uptake of 10 μM [^3H]-glutamine was measured at different time intervals. Transport was stopped as described in Materials and Methods. Values represent means of specific transport ±s.d. from 8 different experiments. Significance was estimated by Student's t test (*P<0.01 or **P<0.001). d, Inhibition of the [^3H]-glutamine uptake in proteoliposomes. The indicated amino acids were added together with 10 μM [^3H]-glutamine Transport was measured at 60 min Values represent means of percent residual activity with respect to control (without added inhibitor) ±s.d. from 3 independent experiments. Significance was estimated by Student's t test (*P<0.01 or **P<0.001). e, Time course of glutamine efflux from proteoliposomes reconstituted with purified SLC38A9. Proteoliposomes were incubated with external 10 μM [^3H]-glutamine After 120 min the residual external radioactivity was removed by gel-filtration and the time course of [^3H]-glutamine efflux was measured as for the uptake (see FIG. 3 c). Values represent means of specific transport ±s.d. from 3 different experiments. f and g. HEK293T cells were transfected with the indicated tagged RAGA (0 or RAGB (g) and RAGC constructs or empty vector (−). Anti-HA immunoprecipitates and cell extracts were treated with PNGase and analysed by immunoblot with the indicated antibodies. Mutations are the following: RAGA: Q66L and T21N; RAGB: Q99L and T54N; RAGC: S75N and Q120N
a, Purification of SLC38A9. Lanes represent empty vector control and SLC38A9 expressed in E. coli and purified on Ni-chelating chromatography Immunoblot of the same fractions using anti-His antibody or anti-SLC38A9 are shown. b, Inhibition of the [^3H]-glutamine uptake in proteoliposomes. 1 mM MeAIB (α-(methylamino)isobutyric acid) was added together with 10 μM [^3H]-glutamine Transport was measured at 60 min. Values represent means of percent residual activity with respect to control (without added inhibitor) ±s.d. from 3 independent experiments. Significance was estimated by Student's t test (*P<0.01 or **P<0.001). c, Uptake of the indicated [3H]-labelled amino acids (10 μM) by SLC38A9 in proteoliposomes measured at 60 min. Values represent means of percent in respect to glutamine transport measured in the same experiment ±s.d. from three independent experiments. Significance was estimated by Student's t test (*P<0.01 or **P<0.001). d, Time course of glutamine uptake by SLC38A9 in proteoliposomes reconstituted with the purified protein fraction. The uptake of 10 μM [^3H]-glutamine was measured at different time intervals, in the presence of the indicated intraliposomal sodium concentrations. Transport was stopped as described in Materials and Methods and calculated by subtracting the radioactivity associated to proteoliposomes reconstituted with the empty vector fraction. Values represent means of specific transport ±s.d. from 3 different experiments. e, Effect of pH on the reconstituted SLC38A9. Reconstitution was performed as described in Materials and Methods except that 20 mM Hepes/Tris at the indicated pH was used. Transport was started by adding 10 μM [^3H]-glutamine in 20 mM Hepes/Tris buffer at the indicated pH to proteoliposomes and stopped at 30 min. Results are means of specific transport rate ±s.d. from 3 different experiments f-g HEK293T cells were starved in medium without amino acids and serum for the indicated times. […]

[6] = target: T1, recombinant human SLC38A9; assay: uptake and efflux of [3H]-labelled amino acids by SLC38A9 in proteoliposomes; format: biochemical; conditions: for direct transport of [3H]-labelled amino acid by SLC38A9: 10 μM labelled amino acid, 60 min, relative to glutamine transport, FIG. 10C
Method: as §3, with “Values represent means of specific transport ±s.d. from 3 different experiments. f and g.” left out
a, Purification of SLC38A9. […] 1 mM MeAIB (α-(methylamino)isobutyric acid) was added together with 10 μM [^3H]-glutamine Transport was measured at 60 min. […] Significance was estimated by Student's t test (*P<0.01 or **P<0.001). c, Uptake of the indicated [3H]-labelled amino acids (10 μM) by SLC38A9 in proteoliposomes measured at 60 min. Values represent means of percent in respect to glutamine transport measured in the same experiment ±s.d. from three independent experiments. […] The uptake of 10 μM [^3H]-glutamine was measured at different time intervals, in the presence of the indicated intraliposomal sodium concentrations. Transport was stopped as described in Materials and Methods and calculated by subtracting the radioactivity associated to proteoliposomes reconstituted with the empty vector fraction. […]

CCGGGCCUUGACAACAGUUCUAUAUCUCGAGAUAUAGAACUGUUGUCAAGGCUUUUUUG (chemistry not given here; listed as Homo sapiens) [shRNA, shRNA-encoding pLKO.1 targeting SLC38A9 (ThermoFisher), lentivirally delivered; targets nt 1931-1951 of human SLC38A9 mRNA]
cell size (HEK293T cells [1]): clear reduction
ability of the targeted cells to proliferate (HEK293T cells [2]): impairment
amino acid-induced mTORC1 activation (mTORC1 [3]): strong reduction
cycloheximide-induced mTORC1 activation (mTORC1 [4]): impaired

N[C@@H](CS)C(=O)O [cysteine]
transport capacity of SLC38A9 for amino acids (transport preference) [5]: highest transport capacity
binding capacity of SLC38A9 for amino acids (binding preference) [5]: highest binding capacity

C[C@H](N)C(=O)O [alanine]
transport capacity of SLC38A9 for amino acids (transport preference) [5]: lowest transport capacity
binding capacity of SLC38A9 for amino acids (binding preference) [5]: lowest binding capacity

N=C(N)NCCC[C@H](N)C(=O)O [arginine]
direct transport of [3H]-labelled amino acid by SLC38A9 [6]: competence
competition for glutamine transport (inhibition of [3H]-glutamine uptake) [5]: low ability

NC(=O)C[C@H](N)C(=O)O [[3H]asparagine, asparagine]
direct transport of [3H]-labelled amino acid by SLC38A9 [6]: competence

CNC(C)(C)C(=O)O [MeAIB, α-(methylamino)isobutyric acid]
competition for glutamine transport (inhibition of [3H]-glutamine uptake) [5]: had not effect

NC(=O)CC[C@H](N)C(=O)O [glutamine]
initial rate of glutamine transport (uptake) ([6]; 10 μM glutamine, time course, proteoliposomes, 25° C., pH 6.5): 0.42±0.10 nmol per mg of protein per minute
rate of [3H]-glutamine efflux from proteoliposomes ([6]; loaded with external 10 μM [3H]-glutamine for 120 min, FIG. 3E): 1.7 ± 0.30 nmol/min/mg
transport capacity of SLC38A9 for amino acids (transport preference) [5]: highest transport capacity
binding capacity of SLC38A9 for amino acids (binding preference) [5]: highest binding capacity
